“Also recorded” adds a separate entry of the source.
Tests used:
5-HT1D/1B receptors = test: 5-HT1D/1B binding assay, [N-methyl 3H] GR-125743, rat forebrain P2 membranes
Protocol: The ability of Compound B and Compound C to bind to 5-HT1D/1B receptors was tested using an assay based on the one described by Millan, M J et al. (2002) Pharmacol. Biochem. Behav. […] [N-methyl ^3H] GR-125743 was used as the radioligand for both 5-HT1D and 5-HT1B receptors. Adult SD rat forebrain P2 membranes (Chazot et al., 1993) were used for the assay. The assay buffer used was 50 mM Tris-HCl pH 7.7 at room temperature containing 4 mM calcium chloride, 0.1% ascorbic acid and 10 μM pargyline. 5-HT (10 μM) was used to define non-specific binding. Incubation with 1 nM [^3H] GR-125743 was carried out for 1 hour at room temperature, and the reaction was terminated by rapid filtration using a Brandel Harvester through GF/B filters pre-soaked in 0.1% polyethyleneimine, followed by three washes with ice-cold buffer (supplemented with 0.1% BSA). A dose range of 10^−10-10^−4M was utilised. The resultant competition curves were analysed using the GraphPad Prism 4 package.

Human HEK-293 cells = test: Cellular assay: inhibition of [3H] serotonin uptake by human embryonic kidney cells; type: cell-based; settings: for inhibition at 10 µM: Homo sapiens, HEK293
Protocol: The ability of isomers B and C to inhibit uptake of serotonin (5-hydroxytryptamine) by human embryonic kidney cells was measured using the following assay conditions: […]

Dopamine D2L Receptor = target: T1, Dopamine D2L Receptor (Homo sapiens, UniProt P14416); test: Dopamine D2L receptor radioligand binding; settings: 10 μM; 0.16 nM [3H] Spiperone
T1 construct: expressed in transfected cells; host or cells: CHO cells
T1 sequence (P14416 whole entry): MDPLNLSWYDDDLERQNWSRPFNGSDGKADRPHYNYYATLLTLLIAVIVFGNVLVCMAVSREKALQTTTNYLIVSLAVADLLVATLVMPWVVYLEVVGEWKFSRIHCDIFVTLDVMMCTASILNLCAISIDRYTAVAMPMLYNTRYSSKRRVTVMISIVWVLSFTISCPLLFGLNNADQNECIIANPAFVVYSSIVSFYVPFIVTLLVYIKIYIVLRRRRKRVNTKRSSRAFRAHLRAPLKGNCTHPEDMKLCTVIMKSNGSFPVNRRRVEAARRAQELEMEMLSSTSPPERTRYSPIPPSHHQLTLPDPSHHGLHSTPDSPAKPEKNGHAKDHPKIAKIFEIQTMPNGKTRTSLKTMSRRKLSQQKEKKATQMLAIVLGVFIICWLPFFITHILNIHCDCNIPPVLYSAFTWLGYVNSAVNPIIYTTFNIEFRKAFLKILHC
Protocol: (§1) (a) Adrenergic α2A Receptor: • Reference: S. Uhlen et al. J. Pharmacol. Exp. Ther., 271:1558-1565 (1994) • Source: Human recombinant insect Sf9 cells • Ligand: 1 nM [^3H] […] J. Pharmacol., 99:803-809, (1990) • Source: Wistar rat cerebral cortex • Ligand: 2 nM [3H]

Caco-2 monolayer = settings: Caco-2
Text: (§3) The assay relies on the ability of Caco-2 cells to differentiate into enterocytes when cultured on a microporous filter for a period of approximately 21 days. During the culture period, the Caco-2 cells undergo spontaneous morphological and biochemical changes, which produce a polarized monolayer with a well-defined brush border on the apical surface, as well as tight cellular junctions. Therefore, these cells may be used as an in vitro model for the analysis of drug permeability.
(§4) Absorption across the Caco-2 monolayer can be measured in two directions: apical-to-basolateral or basolateral-to-apical, by adding the compound to the apical or the basolateral chamber, respectively. At various time-points, samples are collected from the receiver-chamber for analysis for the rate of absorption as measured by the apparent permeability coefficient (Papp) across the monolayer.
(§5) The Papp value reflects a combination of the test article permeability through both transcellular (through cell membranes) and the paracellular (across the tight junctions between the cells) pathways. The relative contribution of these pathways depends upon the pKa, partition coefficient (log D), molecular radius, and charge of the test article at a given pH. Papp values can then be used to rank-order compounds for their permeability through Caco-2 monolayers.
(§6) Absorption was determined at pH 7.4 across cell monolayers in the apical-to-basolateral direction. Caco-2 cells used to estimate Papp values were grown for 26 days on Transwell inserts in 12-well plates. Monolayer integrity was verified before and after the absorption assay by the methods of transepithelial electrical resistance (Ohm-cm^2) and Lucifer Yellow.
(§7) On the day of the assay, the reference standards were diluted in Hank's balanced salt solution (HBSS), pH 7.4 to a final concentration of 50 μM. […] Dihydrotetrabenazine isomer samples were prepared at a concentration of 50 mM in DMSO. Each stock solution was further diluted in HBSS buffer (pH 7.4) to a final working concentration of 50 μM
(§8) The Caco-2 cell suspensions were prepared as follows. […] Once the cell density and viability were determined, Caco-2 cells were diluted in culture medium to a final working concentration of 2.0×10^5 cells/ml. The Caco-2 culture medium contained Dulbecco's Modified Eagle Medium, 10% fetal bovine serum, 100 μM non-essential amino acids, 100 U/ml penicillin and 100 μg/ml streptomycin.
(§9) Costar polycarbonate membranes (0.4 μm pore size) were pre-equilibrated with Caco-2 culture medium for 1 hour in a 37° C. water-jacketed incubator with 5% CO2. The content of the apical chamber was removed and replaced with 500 μl of Caco-2 cell suspension (200 000 cells/ml). Cells were further maintained in culture for 26 days in a 37° C. water-jacketed incubator with 5% CO2.
(§10) Prior to the assay, all monolayers were washed twice with HBSS and their transepithelial electrical resistance (TEER) was measured with a Millicell-ERS meter. TEER values obtained in the absence of cells were subtracted as background signal. Only monolayer with TEER values over 150 Ohm-cm^2 were used for the absorption assay experiment.
(§11) All absorption experiments were conducted in triplicate at pH 7.4. The rate of absorption of each reference standard and dihydrotetrabenazine test article was assessed in the apical-to-basolateral direction. Aliquots (100 μl) of each working solution (reference standards and test articles at 50 μM) were set aside at the beginning of the assay for the determination of the initial concentration (Co).
(§12) Absorption experiments were initiated by replacing the content of the donor chamber with 500 μl of Hanks Balanced Salt Solution containing test articles or reference compounds. Cells were returned to the CO2 incubator for the absorption assay. Samples of 100 μl were collected from the receiver and donor chambers after 1 hour and were used to determine the percentage of recovery.

Monoamine Oxidase MAO-B = target: T2, Monoamine Oxidase MAO-B (Homo sapiens, UniProt P27338); test: Monoamine Oxidase MAO-B inhibition; type: biochemical; settings: for inhibition at 10 µM: read-out: Percentage Inhibition of Enzyme Activity, MAO-B
T2 sequence (P27338 1-520): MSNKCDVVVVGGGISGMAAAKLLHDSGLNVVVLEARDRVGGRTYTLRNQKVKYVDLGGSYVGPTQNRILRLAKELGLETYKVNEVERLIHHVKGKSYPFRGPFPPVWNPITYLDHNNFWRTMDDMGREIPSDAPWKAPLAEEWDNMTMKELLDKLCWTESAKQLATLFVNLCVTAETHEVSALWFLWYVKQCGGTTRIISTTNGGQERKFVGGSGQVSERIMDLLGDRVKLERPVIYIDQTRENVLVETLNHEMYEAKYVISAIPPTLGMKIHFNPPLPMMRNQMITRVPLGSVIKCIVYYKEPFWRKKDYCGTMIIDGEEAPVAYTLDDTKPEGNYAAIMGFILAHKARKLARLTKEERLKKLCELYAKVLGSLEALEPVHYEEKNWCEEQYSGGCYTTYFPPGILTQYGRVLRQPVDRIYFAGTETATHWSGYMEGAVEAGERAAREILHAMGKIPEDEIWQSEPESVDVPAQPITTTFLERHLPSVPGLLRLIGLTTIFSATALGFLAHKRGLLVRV
Protocol: (§2) Isomers B and C were tested for their ability to inhibit enzymes involved in the processing of monoamines in the CNS, namely Catechol O-Methyl Transferase (COMT), Monoamine Oxidase A and Monoamine Oxidase B. The assay methods used are described below and the results are set out in Table 7. (a) Catechol O-Methyl Transferase (COMT) Inhibition • Source: […] None • Incubation time: 60 minutes @ 37° C. • Incubation buffer: 100 mM potassium phosphate, 10 mM MgCl2, 3 mM DTT containing 12 units/ml adenosine deaminase, pH 7.4 • Quantitation method: […]

Monoamine Oxidase MAO-A = target: T3, Monoamine Oxidase MAO-A (Homo sapiens, UniProt P21397); test: Monoamine Oxidase MAO-A inhibition; type: biochemical; settings: for inhibition at 10 µM: read-out: Percentage Inhibition of Enzyme Activity, MAO-A
T3 sequence (P21397 1-527): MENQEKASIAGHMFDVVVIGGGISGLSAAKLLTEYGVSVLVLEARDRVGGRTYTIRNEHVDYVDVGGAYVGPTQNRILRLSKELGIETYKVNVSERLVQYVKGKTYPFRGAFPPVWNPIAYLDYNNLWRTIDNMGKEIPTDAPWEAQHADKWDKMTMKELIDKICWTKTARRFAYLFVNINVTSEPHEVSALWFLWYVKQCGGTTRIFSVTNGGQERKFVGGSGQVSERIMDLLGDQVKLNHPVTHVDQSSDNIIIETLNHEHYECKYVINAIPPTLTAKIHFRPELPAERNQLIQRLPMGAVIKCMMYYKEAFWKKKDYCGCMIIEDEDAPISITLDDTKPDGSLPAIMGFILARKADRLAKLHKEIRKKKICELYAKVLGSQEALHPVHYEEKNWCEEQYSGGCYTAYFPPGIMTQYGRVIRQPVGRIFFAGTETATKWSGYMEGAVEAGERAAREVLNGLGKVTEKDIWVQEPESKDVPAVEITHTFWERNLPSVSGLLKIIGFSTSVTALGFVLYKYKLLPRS
Protocol: as §2

Sigma σ2 Receptor = target: T4, Sigma σ2 Receptor (Rattus norvegicus, UniProt Q5U3Y7); test: Sigma σ2 receptor radioligand binding; set-up: species or system Wistar rat; settings: 3 nM [3H] Ifenprodil
T4 construct: Source: Wistar rat brain; from tissue; host or cells: Wistar rat brain
T4 sequence (Q5U3Y7 1-176): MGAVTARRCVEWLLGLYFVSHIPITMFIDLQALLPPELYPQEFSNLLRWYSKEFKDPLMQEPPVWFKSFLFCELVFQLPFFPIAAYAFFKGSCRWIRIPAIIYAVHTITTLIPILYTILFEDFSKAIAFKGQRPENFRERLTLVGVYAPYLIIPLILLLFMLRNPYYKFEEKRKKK
Protocol: as §1

in vitro = settings: human, Caco-2, pH 7.4
Text: as §3, §4, §5, §6, §7, §8, §9, §10, §11, §12

[1] = target: T5, Serotonin Transporter (SERT) (Homo sapiens, UniProt P31645); test: Serotonin transporter (SERT) radioligand binding; settings: for IC50 / Percentage Inhibition of Specific Binding, SERT: 0.15 nM [125I] RTI-55; for IC50: read-out: IC50 value (in parentheses), SERT; for Percentage Inhibition of Specific Binding, SERT: 10 μM
T5 construct: expressed in transfected cells; host or cells: HEK-293 cells
T5 sequence (P31645 whole entry): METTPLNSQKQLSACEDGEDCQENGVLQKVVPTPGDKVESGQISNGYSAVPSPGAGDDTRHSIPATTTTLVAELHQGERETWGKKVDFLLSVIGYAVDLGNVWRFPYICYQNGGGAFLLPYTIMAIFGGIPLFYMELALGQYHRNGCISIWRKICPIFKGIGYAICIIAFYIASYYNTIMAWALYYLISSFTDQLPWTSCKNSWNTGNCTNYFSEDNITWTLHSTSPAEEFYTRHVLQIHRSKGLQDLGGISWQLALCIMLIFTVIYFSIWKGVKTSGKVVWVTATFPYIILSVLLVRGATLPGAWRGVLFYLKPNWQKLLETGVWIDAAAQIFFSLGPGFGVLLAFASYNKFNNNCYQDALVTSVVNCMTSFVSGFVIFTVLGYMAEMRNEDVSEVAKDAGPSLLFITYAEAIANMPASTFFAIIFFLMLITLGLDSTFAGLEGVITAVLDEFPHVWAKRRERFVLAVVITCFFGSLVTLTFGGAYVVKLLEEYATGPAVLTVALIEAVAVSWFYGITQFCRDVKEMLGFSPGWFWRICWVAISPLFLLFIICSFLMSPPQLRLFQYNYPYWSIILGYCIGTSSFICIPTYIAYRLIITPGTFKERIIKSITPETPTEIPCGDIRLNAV
Protocol: as §1

Structure (SMILES) | affinity/activity at 5-HT1D/1B (in words) (5-HT1D/1B receptors) | mode of action on serotonin uptake (in words) (Human HEK-293 cells) | inhibition at 10 µM (Human HEK-293 cells) [%] | Percentage Inhibition of Specific Binding, D2L Receptor (Dopamine D2L Receptor) [%] | permeability in the Caco-2 model (in words) (Caco-2 monolayer) | inhibitory activity against monoamine oxidase isoform B (in words) (Monoamine Oxidase MAO-B) | inhibition at 10 µM (Monoamine Oxidase MAO-B) [%] | inhibitory activity against monoamine oxidase isoform A (in words) (Monoamine Oxidase MAO-A) | inhibition at 10 µM (Monoamine Oxidase MAO-A) [%] | inhibition at 10 µM (Sigma σ2 Receptor; read-out: Percentage Inhibition of Specific Binding, σ2 Receptor) [%] | Papp A→B at 1 h, 50 μM (in vitro) [×10⁻⁶ cm/s] | recovery at 1 h, 50 μM (in vitro) [%] | inhibition of SERT (in words) [1] | IC50 [1] [nM] | Percentage Inhibition of Specific Binding, SERT [1] [%] | Percentage Inhibition of Specific Binding, σ2 Receptor (Sigma σ2 Receptor; 10 μM) [%]
COc1cc2c(cc1OC)[C@H]1C[C@@H](O)[C@@H](CC(C)C)CN1CC2 (single isomer, unassigned) [Isomer C, 3,11b-cis-dihydrotetrabenazine] | low affinity for 5-HT1D/1B receptors; also recorded: no inhibitory activity | antagonist | 86 | −14 | high permeability | no inhibitory activity | -5 | no inhibitory activity | 3 | 61 | 21.1 | 102 ± 12.4 | potent inhibitors | 2750 | 77 | 
COc1cc2c(cc1OC)[C@H]1C[C@H](O)[C@@H](CC(C)C)CN1CC2 (single isomer, unassigned) [Isomer B, 3,11b-cis-dihydrotetrabenazine] | low affinity for 5-HT1D/1B receptors; also recorded: no inhibitory activity | antagonist | 56 | 16 | medium permeability | no inhibitory activity | -5 | no inhibitory activity | 3 |  |  | 90.1 ± 6.5 | potent inhibitors | 350 | 86 | 64

From patent publication US20080108645A1, “Dihydrotetrabenazines And Pharmaceutical Compositions Containing Them” (CAMBRIDGE LABORATORIES, (IRELAND), LTD., priority 2004, published 2008)
